Assay [1] deals with T1, DNA topoisomerase II (Homo sapiens, UniProt P11388+Q02880). The assay is described as follows: Inhibition of DNA topoisomerase 2 in human HeLa cells incubated for 18 to 24 hrs by kinase assay. The class given is cell-based.
For assay [2], the system named is HepG2. The assay is described as follows: Cytotoxicity against human HepG2 cells assessed as increase in growth inhibition by measuring decrease in cell viability incubated for 72 hrs and measured after 2 hrs by microplate reader based WST-1 assay. The assay is classed as functional. Background: Formazan colour is commonly taken as a measure of viable cells.
For assay [3], the target named is T1, DNA topoisomerase II. The assay is described as follows: Inhibition of DNA topoisomerase 2 in human HeLa cells at 25 uM incubated for 18 to 24 hrs by kinase assay relative to control. The class given is cell-based.
In assay [4] the target is T1, DNA topoisomerase II. The assay can be described thus: Inhibition of DNA topoisomerase 2 in human HeLa cells at 0.2 uM incubated for 18 to 24 hrs by kinase assay relative to control. The assay is classed as cell-based.
Assay [5] addresses T1, DNA topoisomerase II. The assay can be described thus: Inhibition of DNA topoisomerase 2 in human HeLa cells at 1 uM incubated for 18 to 24 hrs by kinase assay relative to control. The assay is classed as cell-based.
For assay [6], the target named is T1, DNA topoisomerase II. The assay is described as follows: Inhibition of DNA topoisomerase 2 in human HeLa cells at 5 uM incubated for 18 to 24 hrs by kinase assay relative to control. The class given is cell-based.
Assay [7] concerns HeLa. The assay can be described thus: Cytotoxicity against human HeLa cells assessed as increase in growth inhibition by measuring decrease in cell viability incubated for 72 hrs and measured after 2 hrs by microplate reader based WST-1 assay. The class given is functional. The conditions noted are these: Homo sapiens, HeLa; read-out: IC50.
Assay [8] concerns HeLa. The assay is described as follows: Induction of apoptosis in human HeLa cells assessed as increase in caspase 9 activation by measuring fold increase in caspase 9 level by fluorescence based solid phase sandwich ELISA. The class given is functional. For orientation: An ELISA detects its analyte on a solid surface through an enzyme-linked reagent.
The target of assay [9] is T2, Epidermal growth factor receptor (Homo sapiens, UniProt P00533). The assay is described as follows: Inhibition of EGFR-TK in human HeLa cells overexpressing EGFR incubated for 18 to 24 hrs by kinase assay. The class given is cell-based.
The subject of assay [10] is HCT-116. The assay can be described thus: Cytotoxicity against human HCT116 cells assessed as increase in growth inhibition by measuring decrease in cell viability incubated for 72 hrs and measured after 2 hrs by microplate reader based WST-1 assay. The class given is functional.
Assay [11] has as its system HeLa. The assay is described as follows: Induction of apoptosis in human HeLa cells assessed as increase in caspase 3 activation by measuring fold increase in caspase 3 level by fluorescence based solid phase sandwich ELISA. The class given is functional.
In assay [12] the test system is MCF7. The assay is described as follows: Cytotoxicity against human MCF7 cells assessed as increase in growth inhibition by measuring decrease in cell viability incubated for 72 hrs and measured after 2 hrs by microplate reader based WST-1 assay. The class given is functional. The note with it: Homo sapiens, MCF7; read-out: IC50.
Assay [13] has as its system MCF7. The assay can be described thus: Induction of apoptosis in human MCF7 cells assessed as necrotic cells after 24 hrs by Annexin V-FITC/propidium iodide staining-based FACS analysis (reference value: 0.15%). The assay is classed as functional.
Assay [14] addresses T2, Epidermal growth factor receptor. The assay is described as follows: Inhibition of EGFR-TK in human MCF7 cells overexpressing EGFR incubated for 18 to 24 hrs by kinase assay. The class given is cell-based.
In assay [15] the test system is MCF7. The assay is described as follows: Induction of apoptosis in human MCF7 cells assessed as late apoptotic cells after 24 hrs by Annexin V-FITC/propidium iodide staining-based FACS analysis (reference value: 0.22%). The assay is classed as functional. A general note: Flow cytometry measures light scatter and fluorescence of single cells or particles in a stream.

The subject of assay [16] is MCF7. The assay is described as follows: Induction of apoptosis in human MCF7 cells after 24 hrs by Annexin V-FITC/propidium iodide staining-based FACS analysis. The class given is functional, cell-based.
Assay [17] deals with MCF7. The assay can be described thus: Induction of apoptosis in human MCF7 cells assessed as viable cells after 24 hrs by Annexin V-FITC/propidium iodide staining-based FACS analysis (reference value: 99.34%). The assay is classed as functional.
Assay [18] relates to MCF7. The assay can be described thus: Cell cycle arrest in human MCF7 cells assessed as accumulation at S phase at IC50 after 24 hrs by propidium iodide staining based FACS analysis (reference value: 27.13%). The class given is functional.
Assay [19] deals with HeLa. The assay is described as follows: Cytotoxicity against human HeLa cells assessed as cell growth inhibition at 3.125 to 100 uM incubated for 72 hrs and measured after 2 hrs by microplate reader based WST-1 assay relative to control. The class given is functional.
In assay [20] the test system is MCF7. The assay can be described thus: Induction of apoptosis in human MCF7 cells assessed as increase in caspase 9 activation by measuring fold increase in caspase 9 level by fluorescence based solid phase sandwich ELISA. The assay is classed as functional.
The subject of assay [21] is HepG2. The assay can be described thus: Cytotoxicity against human HepG2 cells assessed as cell growth inhibition at 3.125 to 100 uM incubated for 72 hrs and measured after 2 hrs by microplate reader based WST-1 assay relative to control. The class given is functional.
The test system of assay [22] is MCF7. The assay can be described thus: Cell cycle arrest in human MCF7 cells assessed as accumulation at G0/G1 phase at IC50 after 24 hrs by propidium iodide staining based FACS analysis (reference value: 67.39%). The class given is functional.
For assay [23], the target named is T1, DNA topoisomerase II. The assay is described as follows: Inhibition of DNA topoisomerase 2 in human MCF7 cells at 1 uM incubated for 18 to 24 hrs by kinase assay relative to control. The class given is cell-based.
For assay [24], the system named is MCF7. The assay is described as follows: Cell cycle arrest in human MCF7 cells assessed as accumulation at G2/M phase at IC50 after 24 hrs by propidium iodide staining based FACS analysis (reference value: 4.82%). The assay is classed as functional.
Assay [25] deals with T1, DNA topoisomerase II. The assay is described as follows: Inhibition of DNA topoisomerase 2 in human MCF7 cells incubated for 18 to 24 hrs by kinase assay. The assay is classed as cell-based.
The test system of assay [26] is HCT-116. The assay can be described thus: Cytotoxicity against human HCT116 cells assessed as cell growth inhibition at 3.125 to 100 uM incubated for 72 hrs and measured after 2 hrs by microplate reader based WST-1 assay relative to control. The assay is classed as functional.
In assay [27] the test system is MCF7. The assay can be described thus: Induction of apoptosis in human MCF7 cells assessed as early apoptotic cells after 24 hrs by Annexin V-FITC/propidium iodide staining-based FACS analysis (reference value: 0.29%). The class given is functional.
The subject of assay [28] is MCF7. The assay can be described thus: Cytotoxicity against human MCF7 cells assessed as cell growth inhibition at 3.125 to 100 uM incubated for 72 hrs and measured after 2 hrs by microplate reader based WST-1 assay relative to control. The assay is classed as functional.
Assay [29] addresses T1, DNA topoisomerase II. The assay is described as follows: Inhibition of DNA topoisomerase 2 in human MCF7 cells at 25 uM incubated for 18 to 24 hrs by kinase assay relative to control. The class given is cell-based.
In assay [30] the target is T1, DNA topoisomerase II. The assay can be described thus: Inhibition of DNA topoisomerase 2 in human MCF7 cells at 5 uM incubated for 18 to 24 hrs by kinase assay relative to control. The class given is cell-based.
The target in assay [31] is T1, DNA topoisomerase II. The assay is described as follows: Inhibition of DNA topoisomerase 2 in human MCF7 cells at 0.2 uM incubated for 18 to 24 hrs by kinase assay relative to control. The class given is cell-based.
The test system of assay [32] is MCF7. The assay can be described thus: Cell cycle arrest in human MCF7 cells assessed as accumulation at pre G1/apoptotic phase at IC50 after 24 hrs by propidium iodide staining based FACS analysis (reference value: 0.66%). The class given is functional.
Assay [33] relates to MCF7. The assay can be described thus: Induction of apoptosis in human MCF7 cells assessed as increase in caspase 3 activation by measuring fold increase in caspase 3 level by fluorescence based solid phase sandwich ELISA. The assay is classed as functional.

T2 sequence (P00533 whole entry): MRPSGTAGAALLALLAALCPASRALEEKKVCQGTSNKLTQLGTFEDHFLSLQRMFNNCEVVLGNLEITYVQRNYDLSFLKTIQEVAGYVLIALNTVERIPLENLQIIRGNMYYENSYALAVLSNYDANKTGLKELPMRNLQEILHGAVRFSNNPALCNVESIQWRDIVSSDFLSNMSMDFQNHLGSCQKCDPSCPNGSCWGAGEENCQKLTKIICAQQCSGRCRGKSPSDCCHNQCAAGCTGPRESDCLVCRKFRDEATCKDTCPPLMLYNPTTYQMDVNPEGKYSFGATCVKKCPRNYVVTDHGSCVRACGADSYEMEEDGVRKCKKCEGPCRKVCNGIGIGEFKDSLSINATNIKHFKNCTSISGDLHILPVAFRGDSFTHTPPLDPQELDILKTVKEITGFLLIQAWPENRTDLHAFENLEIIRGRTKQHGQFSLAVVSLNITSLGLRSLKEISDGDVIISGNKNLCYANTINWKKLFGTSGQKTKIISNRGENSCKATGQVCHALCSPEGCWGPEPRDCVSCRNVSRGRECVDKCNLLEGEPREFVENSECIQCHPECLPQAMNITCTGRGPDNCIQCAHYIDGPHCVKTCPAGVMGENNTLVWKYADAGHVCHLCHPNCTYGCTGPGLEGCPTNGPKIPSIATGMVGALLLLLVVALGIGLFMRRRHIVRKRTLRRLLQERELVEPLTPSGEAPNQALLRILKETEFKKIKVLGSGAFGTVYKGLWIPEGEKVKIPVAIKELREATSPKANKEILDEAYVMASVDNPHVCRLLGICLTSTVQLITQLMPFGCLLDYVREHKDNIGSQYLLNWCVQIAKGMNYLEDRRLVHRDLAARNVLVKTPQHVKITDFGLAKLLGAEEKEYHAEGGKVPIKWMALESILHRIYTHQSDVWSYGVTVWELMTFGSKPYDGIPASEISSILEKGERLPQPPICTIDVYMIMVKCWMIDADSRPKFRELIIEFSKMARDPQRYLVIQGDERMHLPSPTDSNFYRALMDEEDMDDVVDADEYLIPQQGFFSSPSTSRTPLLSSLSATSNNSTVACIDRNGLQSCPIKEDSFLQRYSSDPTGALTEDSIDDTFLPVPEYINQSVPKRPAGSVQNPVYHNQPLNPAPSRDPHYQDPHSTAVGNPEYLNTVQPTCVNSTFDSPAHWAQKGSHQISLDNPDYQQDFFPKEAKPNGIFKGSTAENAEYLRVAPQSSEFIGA

For `OC(c1cccs1)c1cc2ccccc2nc1Cl` (stereo not drawn), the IC50 (usually the point on the concentration scale where inhibition reaches its midpoint) is 4.95 µM at DNA topoisomerase II [1]; 80.8 µM in the assay on HepG2 [2] (Homo sapiens, HepG2, read-out: IC50); 17.5 µM in the assay with HeLa [7]; 6.3 µM in [9]; 69.3 µM in the assay on HCT-116 [10] (Homo sapiens, HCT-116, read-out: IC50); 80.6 µM with MCF7 [12]. For the same compound, the inhibition – broadly, the percentage by which the read-out fell short of the control – against DNA topoisomerase II [3] came out at 80.7%; against DNA topoisomerase II [4] it was 3.85%; at DNA topoisomerase II [5] it was 20%; against DNA topoisomerase II [6], 45%. The “fold change (FC)” value is 72.6 in the assay with HeLa [8] and 12.8 with HeLa [11].
In the case of `Fc1ccc(COC(c2cccs2)c2cc3ccccc3nc2Cl)cc1` (stereo not drawn), the Activity in the assay with MCF7 [13] is 0.83%; in the assay on MCF7 [15], 8.42%; in the assay with MCF7 [16] it was “Dose-dependent effect”; in the assay on MCF7 [17] it was 83.96%; in the assay on MCF7 [18], 17.19%; in the assay on MCF7 [22] it was 47.2%. Moreover, the Activity in the assay with MCF7 [24] is on record as 19.33%; in the assay with MCF7 [27], 7.03%; in the assay with MCF7 [32], 16.28%. The IC50 in assay [14] is 2.75 µM; in the assay with HepG2 [2] (hepg2), “Not Active”; with HeLa [7], 73.9 µM; at DNA topoisomerase II [25], 0.23 µM; with HCT-116 [10] (hct-116) it was “Not Active”; in the assay on MCF7 [12], 38.4 µM. Also, the “growth inhibition (GI)” value with HeLa [19] is recorded as 66.21%; in the assay with HepG2 [21] it was 30.53%; in the assay on HCT-116 [26], under 10%; in the assay with MCF7 [28] it was 64.97%. Besides, the “fold change (FC)” value in the assay on MCF7 [20] is recorded as 40.6; in the assay on MCF7 [33], 30.8. In addition, the inhibition was 70.8% against DNA topoisomerase II [23], 93.7% against DNA topoisomerase II [29], 88.5% at DNA topoisomerase II [30] and 43.3% on DNA topoisomerase II [31].
Regarding `CC[C@@]1(O)C(=O)OCc2c1cc1n(c2=O)Cc2cc3c(CN(C)C)c(O)ccc3nc2-1` [TOPOTECAN], the IC50 on DNA topoisomerase II [1] was determined as 0.73 µM; on DNA topoisomerase II [25] it was 0.48 µM. Moreover, the inhibition against DNA topoisomerase II [4] was 32%; against DNA topoisomerase II [5], 66.5%; against DNA topoisomerase II [29], 92.8%; on DNA topoisomerase II [30], 85.6%.

The values above are taken from ChEMBL document CHEMBL4396926, “Design, Synthesis and Anticancer Evaluation of New Substituted Thiophene-Quinoline Derivatives” (Bioorg Med Chem, 2019).
